According to the supplement of paper PMC10307832:

Tests used:
Assay in all cases: relative viability (nuclei count vs DMSO), 5 days (fraction); higher = more cells survive
[1] = tested on: EKVX
Summary of the method: (§1)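 Relative viability is defined as nuclei in treated wells over nuclei in vehicle wells. Duplicate plates were run and medians reported. Lung cancer cell lines in 1536-well plates were dosed by pin tool one day after seeding, with one drug or with a fixed anchor-drug dose plus five library-drug doses (not always all listed) in √10 steps, and nuclei were counted after 5 days.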

[2] = tested on: NCI-H1648
Summary of the method: as §1

[3] = tested on: RERF-LC-KJ
Summary of the method: as §1

[4] = tested on: NCI-H1993
Summary of the method: as §1

[5] = tested on: NCI-H2085
Summary of the method: as §1

[6] = tested on: NCI-H2126
Summary of the method: as §1

[7] = tested on: HCC-44
Summary of the method: as §1

[8] = tested on: ABC-1
Summary of the method: as §1

## CC(=O)O[C@@]12CO[C@@H]1C[C@H](O)[C@@]1(C)C(=O)[C@H](O)C3=C(C)[C@@H](OC(=O)[C@H](O)[C@@H](NC(=O)OC(C)(C)C)c4ccccc4)C[C@@](O)([C@@H](OC(=O)c4ccccc4)[C@H]21)C3(C)C [Docetaxel] + CC(=O)Nc1cccc(-n2c(=O)n(C3CC3)c(=O)c3c(Nc4ccc(I)cc4F)n(C)c(=O)c(C)c32)c1 [Trametinib] (partner 0.02 µM)
[1]; first compound 0.0002 µM
  relative viability: 0.343
[1]; first compound 0.000632 µM
  relative viability: 0.358
[1]; first compound 0.002 µM
  relative viability: 0.185
[1]; first compound 0.006325 µM
  relative viability: 0.286
[1]; first compound 0.02 µM
  relative viability: 0.131
[2]; first compound 0.0002 µM
  relative viability: 0.435
[2]; first compound 0.000632 µM
  relative viability: 0.456
[2]; first compound 0.002 µM
  relative viability: 0.367
[2]; first compound 0.006325 µM
  relative viability: 0.288
[2]; first compound 0.02 µM
  relative viability: 0.193
[3]; first compound 0.0002 µM
  relative viability: 0.767
[3]; first compound 0.000632 µM
  relative viability: 0.816
[3]; first compound 0.002 µM
  relative viability: 0.39
[3]; first compound 0.006325 µM
  relative viability: 0.217
[3]; first compound 0.02 µM
  relative viability: 0.142
[4]; first compound 0.0002 µM
  relative viability: 0.504
[4]; first compound 0.000632 µM
  relative viability: 0.578
[4]; first compound 0.002 µM
  relative viability: 0.546
[4]; first compound 0.006325 µM
  relative viability: 0.481
[4]; first compound 0.02 µM
  relative viability: 0.3
[5]; first compound 0.0002 µM
  relative viability: 0.503
[5]; first compound 0.000632 µM
  relative viability: 0.513
[5]; first compound 0.002 µM
  relative viability: 0.324
[5]; first compound 0.006325 µM
  relative viability: 0.329
[5]; first compound 0.02 µM
  relative viability: 0.199
[6]; first compound 0.0002 µM
  relative viability: 0.543
[6]; first compound 0.000632 µM
  relative viability: 0.471
[6]; first compound 0.002 µM
  relative viability: 0.403
[6]; first compound 0.006325 µM
  relative viability: 0.31
[7]; first compound 0.0002 µM
  relative viability: 1.04
[7]; first compound 0.000632 µM
  relative viability: 1
[7]; first compound 0.002 µM
  relative viability: 1.07
[7]; first compound 0.006325 µM
  relative viability: 0.577
[7]; first compound 0.02 µM
  relative viability: 0.472

## CC(=O)O[C@@]12CO[C@@H]1C[C@H](O)[C@@]1(C)C(=O)[C@H](O)C3=C(C)[C@@H](OC(=O)[C@H](O)[C@@H](NC(=O)OC(C)(C)C)c4ccccc4)C[C@@](O)([C@@H](OC(=O)c4ccccc4)[C@H]21)C3(C)C [Docetaxel] + CC(=O)c1c(C)c2cnc(Nc3ccc(N4CCNCC4)cn3)nc2n(C2CCCC2)c1=O [Palbociclib] (partner 0.5 µM)
[1]; first compound 0.0002 µM
  relative viability: 0.337
[1]; first compound 0.000632 µM
  relative viability: 0.36
[1]; first compound 0.002 µM
  relative viability: 0.245
[1]; first compound 0.006325 µM
  relative viability: 0.242
[1]; first compound 0.02 µM
  relative viability: 0.149
[2]; first compound 0.0002 µM
  relative viability: 0.265
[2]; first compound 0.000632 µM
  relative viability: 0.26
[2]; first compound 0.002 µM
  relative viability: 0.271
[2]; first compound 0.006325 µM
  relative viability: 0.249
[2]; first compound 0.02 µM
  relative viability: 0.247
[3]; first compound 0.0002 µM
  relative viability: 1.02
[3]; first compound 0.000632 µM
  relative viability: 1.37
[3]; first compound 0.002 µM
  relative viability: 0.381
[3]; first compound 0.006325 µM
  relative viability: 0.249
[3]; first compound 0.02 µM
  relative viability: 0.165
[4]; first compound 0.0002 µM
  relative viability: 0.799
[4]; first compound 0.000632 µM
  relative viability: 0.708
[4]; first compound 0.002 µM
  relative viability: 0.686
[4]; first compound 0.006325 µM
  relative viability: 0.538
[4]; first compound 0.02 µM
  relative viability: 0.307
[8]; first compound 0.0002 µM
  relative viability: 0.568
[8]; first compound 0.000632 µM
  relative viability: 0.587
[8]; first compound 0.002 µM
  relative viability: 0.539
[8]; first compound 0.006325 µM
  relative viability: 0.444
[8]; first compound 0.02 µM
  relative viability: 0.437
[5]; first compound 0.0002 µM
  relative viability: 0.463
[5]; first compound 0.000632 µM
  relative viability: 0.551
[5]; first compound 0.002 µM
  relative viability: 0.539
[5]; first compound 0.006325 µM
  relative viability: 0.48
[5]; first compound 0.02 µM
  relative viability: 0.42
[6]; first compound 0.0002 µM
  relative viability: 0.378
[6]; first compound 0.000632 µM
  relative viability: 0.356
[6]; first compound 0.002 µM
  relative viability: 0.332
[6]; first compound 0.006325 µM
  relative viability: 0.261
[7]; first compound 0.0002 µM
  relative viability: 0.904
[7]; first compound 0.000632 µM
  relative viability: 1.01
[7]; first compound 0.002 µM
  relative viability: 0.968
[7]; first compound 0.006325 µM
  relative viability: 0.691
[7]; first compound 0.02 µM
  relative viability: 0.632

## CC(=O)O[C@@]12CO[C@@H]1C[C@H](O)[C@@]1(C)C(=O)[C@H](O)C3=C(C)[C@@H](OC(=O)[C@H](O)[C@@H](NC(=O)OC(C)(C)C)c4ccccc4)C[C@@](O)([C@@H](OC(=O)c4ccccc4)[C@H]21)C3(C)C [Docetaxel] + Nc1nc2[nH]cc(CCc3ccc(C(=O)N[C@@H](CCC(=O)O)C(=O)O)cc3)c2c(=O)[nH]1 [Pemetrexed] (partner 0.2 µM)
[1]; first compound 0.0002 µM
  relative viability: 0.377
[1]; first compound 0.000632 µM
  relative viability: 0.392
[1]; first compound 0.002 µM
  relative viability: 0.288
[1]; first compound 0.006325 µM
  relative viability: 0.209
[1]; first compound 0.02 µM
  relative viability: 0.193
[2]; first compound 0.0002 µM
  relative viability: 0.73
[2]; first compound 0.000632 µM
  relative viability: 0.758
[2]; first compound 0.002 µM
  relative viability: 0.386
[2]; first compound 0.006325 µM
  relative viability: 0.186
[2]; first compound 0.02 µM
  relative viability: 0.231
[3]; first compound 0.0002 µM
  relative viability: 0.375
[3]; first compound 0.000632 µM
  relative viability: 0.342
[3]; first compound 0.002 µM
  relative viability: 0.297
[3]; first compound 0.006325 µM
  relative viability: 0.173
[3]; first compound 0.02 µM
  relative viability: 0.157
[4]; first compound 0.0002 µM
  relative viability: 0.641
[4]; first compound 0.000632 µM
  relative viability: 0.762
[4]; first compound 0.002 µM
  relative viability: 0.64
[4]; first compound 0.006325 µM
  relative viability: 0.444
[4]; first compound 0.02 µM
  relative viability: 0.391
[5]; first compound 0.0002 µM
  relative viability: 0.84
[5]; first compound 0.000632 µM
  relative viability: 0.902
[5]; first compound 0.002 µM
  relative viability: 0.552
[5]; first compound 0.006325 µM
  relative viability: 0.545
[5]; first compound 0.02 µM
  relative viability: 0.301
[6]; first compound 0.0002 µM
  relative viability: 0.79
[6]; first compound 0.000632 µM
  relative viability: 0.661
[6]; first compound 0.002 µM
  relative viability: 0.456
[6]; first compound 0.006325 µM
  relative viability: 0.391
[7]; first compound 0.0002 µM
  relative viability: 0.627
[7]; first compound 0.000632 µM
  relative viability: 0.644
[7]; first compound 0.002 µM
  relative viability: 0.628
[7]; first compound 0.006325 µM
  relative viability: 0.602
[7]; first compound 0.02 µM
  relative viability: 0.491
